These results are taken from PubChem BioAssay (NCI).

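Five compound concentrations were applied to cells in 96-well plates for 48 hours; endpoints were derived by simple linear interpolation of the resulting dose-response curve. Definition used: TGI = concentration required for complete inhibition of growth.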

Among the test systems are HCC-2998 colon; HOP-62 NSCLC; RXF 393 renal; MCF7 breast; A549 NSCLC; U251 CNS; EKVX NSCLC; LOX IMVI melanoma; MDA-MB-231 breast; OVCAR-5 ovarian; COLO 205 colon; NCI-H23 lung; HOP-92 NSCLC; OVCAR-8 ovarian; HCT-116 colon; NCI-H226 lung; HCT-15 colon; SF-295 CNS; SF-539 CNS.
What all share (experiment): NCI tumour cell line growth inhibition, 48 h

For the compound `COc1ccc(-c2csc(Cc3nc4c(Br)cc(Br)cc4c(=O)n3-c3ccc(OC)cc3)n2)cc1`, the TGI with HCC-2998 colon, in the assay with HOP-62 NSCLC, with RXF 393 renal, in the assay with MCF7 breast, in the assay on A549 NSCLC and in the assay with U251 CNS was over 100 µM in each case. Also, the TGI in the assay with EKVX NSCLC, in the assay on LOX IMVI melanoma, in the assay with MDA-MB-231 breast, with OVCAR-5 ovarian, in the assay with COLO 205 colon and with NCI-H23 lung was over 100 µM in each case. The TGI in the assay with HOP-92 NSCLC, in the assay with OVCAR-8 ovarian, with HCT-116 colon, with NCI-H226 lung, in the assay with HCT-15 colon and in the assay on SF-295 CNS was over 100 µM each time.
For the compound `COc1ccccc1/C=C1\S/C(=N/Nc2nc(C)c(C(C)=O)s2)NC1=O`, the TGI with HCC-2998 colon is over 100 µM; in the assay on HOP-62 NSCLC, over 100 µM; with RXF 393 renal, over 100 µM; in the assay with MCF7 breast, 67 µM; with A549 NSCLC, over 100 µM; in the assay with U251 CNS it was over 100 µM. Besides, the TGI is over 100 µM in the assay with LOX IMVI melanoma; 65 µM with MDA-MB-231 breast; over 100 µM in the assay on OVCAR-5 ovarian; 46.2 µM in the assay on COLO 205 colon; over 100 µM in the assay with NCI-H23 lung; over 100 µM with SF-539 CNS. Besides, the TGI in the assay on HOP-92 NSCLC is 48 µM; in the assay on OVCAR-8 ovarian, over 100 µM; in the assay on HCT-116 colon, over 100 µM; with NCI-H226 lung, 39.8 µM; with SF-295 CNS it was over 100 µM.
Consider `CC(C)(C)OC(=O)[C@@H]1ON2O[C@H](OC3CCCC3(c3ccccc3)c3ccccc3)C[C@H]3OC(=O)[C@@H]1[C@H]32` (stereo partly drawn), for which the TGI with HOP-62 NSCLC was over 100 µM; with RXF 393 renal, 92.1 µM; with MCF7 breast it was over 100 µM; in the assay on A549 NSCLC, over 100 µM; with U251 CNS, over 100 µM; in the assay on EKVX NSCLC, over 100 µM. Besides, the TGI was 96.6 µM in the assay on LOX IMVI melanoma; over 100 µM with MDA-MB-231 breast; over 100 µM in the assay on OVCAR-5 ovarian; over 100 µM in the assay on COLO 205 colon; over 100 µM in the assay with NCI-H23 lung; over 100 µM with SF-539 CNS. Also, the TGI with HCT-116 colon, in the assay with NCI-H226 lung, with HCT-15 colon and in the assay with SF-295 CNS was over 100 µM each time.
As for `CCOC(=O)NN(C(=O)OCC)C(=C(C1=CCCCC1)N1CCOCC1)N(NC(=O)OCC)C(=O)OCC`, the TGI in the assay on HCC-2998 colon, with HOP-62 NSCLC, in the assay on RXF 393 renal, in the assay with MCF7 breast, with A549 NSCLC and with U251 CNS was over 100 µM in each case. Moreover, the TGI in the assay on EKVX NSCLC, with LOX IMVI melanoma, in the assay with MDA-MB-231 breast, in the assay with OVCAR-5 ovarian, in the assay with COLO 205 colon and with NCI-H23 lung was over 100 µM each time. The TGI with HOP-92 NSCLC, with OVCAR-8 ovarian, with NCI-H226 lung, in the assay on HCT-15 colon and in the assay with SF-295 CNS was over 100 µM each time.
Turning to `COC(=O)c1c(C)c2c(c(C)c1C(=O)OC)-c1c(C)ccc3ccc(C)c-2c13`, the TGI in the assay with HOP-62 NSCLC, in the assay on RXF 393 renal, in the assay with MCF7 breast, in the assay with A549 NSCLC, with U251 CNS and in the assay with EKVX NSCLC was over 100 µM each time. The TGI in the assay with LOX IMVI melanoma was over 86.5 µM; in the assay with MDA-MB-231 breast it was over 60.6 µM; in the assay with OVCAR-5 ovarian it was over 100 µM; in the assay on COLO 205 colon, over 100 µM; with SF-539 CNS it was over 100 µM; with OVCAR-8 ovarian, over 100 µM. Besides, the TGI with HCT-116 colon is over 100 µM; with NCI-H226 lung, over 100 µM; in the assay with HCT-15 colon it was over 55.6 µM; in the assay with SF-295 CNS, over 87.1 µM.
Consider `c1ccc(Cn2c(-c3ccc(-c4ccccc4)cc3)cc3ccccc32)cc1`, for which the TGI in the assay with HCC-2998 colon, in the assay on HOP-62 NSCLC, in the assay with MCF7 breast, in the assay with A549 NSCLC, in the assay with U251 CNS and in the assay on EKVX NSCLC was over 100 µM in each case. The TGI with LOX IMVI melanoma, in the assay on MDA-MB-231 breast, with OVCAR-5 ovarian, in the assay with COLO 205 colon, in the assay on NCI-H23 lung and in the assay on SF-539 CNS was over 100 µM each time. Also, the TGI with HOP-92 NSCLC, in the assay with OVCAR-8 ovarian, in the assay with HCT-116 colon, with NCI-H226 lung, with HCT-15 colon and in the assay on SF-295 CNS was over 100 µM each time.
On to `CCC/C(Cl)=N/OC(NC(=O)OCC)(C(F)(F)F)C(F)(F)F`, for which the TGI with HOP-62 NSCLC is over 100 µM; in the assay with RXF 393 renal, 33.6 µM; in the assay on MCF7 breast, 43.5 µM; with A549 NSCLC it was over 100 µM; in the assay on U251 CNS it was over 100 µM; in the assay on EKVX NSCLC, 45 µM. Besides, the TGI in the assay with LOX IMVI melanoma turned out to be 35.4 µM; with MDA-MB-231 breast, 31.6 µM; with OVCAR-5 ovarian it was 33.2 µM; in the assay with COLO 205 colon, 36.9 µM; with NCI-H23 lung it was 61.4 µM; with SF-539 CNS, 30.3 µM. Besides, the TGI with HOP-92 NSCLC is 36.2 µM; in the assay on OVCAR-8 ovarian, over 100 µM; in the assay on HCT-116 colon, 34.6 µM; in the assay on NCI-H226 lung, over 100 µM; in the assay with HCT-15 colon, 40.6 µM; with SF-295 CNS, over 100 µM.
For the compound `CCNC1=C(NC(=O)c2ccccc2)C(=O)c2ccccc2C1=O`, the TGI in the assay on HCC-2998 colon was over 100 µM; in the assay on HOP-62 NSCLC it was over 100 µM; with RXF 393 renal, 74.1 µM; in the assay on MCF7 breast, over 100 µM; with A549 NSCLC it was over 100 µM; in the assay with U251 CNS, over 100 µM. Besides, the TGI in the assay on MDA-MB-231 breast, in the assay with OVCAR-5 ovarian, in the assay on COLO 205 colon, in the assay with NCI-H23 lung, in the assay on SF-539 CNS and in the assay with HOP-92 NSCLC was over 100 µM throughout. Further, the TGI in the assay with OVCAR-8 ovarian, in the assay on HCT-116 colon, in the assay on NCI-H226 lung, with HCT-15 colon and in the assay on SF-295 CNS was over 100 µM throughout.
Turning to `COc1ccc(CCNC(=O)c2ccccc2C2c3ccc(OCc4ccccc4)cc3Oc3cc(OCc4ccccc4)ccc32)cc1OC`, the TGI in the assay on HCC-2998 colon, with HOP-62 NSCLC, in the assay with RXF 393 renal, in the assay on MCF7 breast, in the assay on A549 NSCLC and in the assay with U251 CNS was over 100 µM throughout. For the same compound, the TGI in the assay on EKVX NSCLC, with LOX IMVI melanoma, in the assay on MDA-MB-231 breast, in the assay with OVCAR-5 ovarian, with COLO 205 colon and in the assay on NCI-H23 lung was over 100 µM each time. Moreover, the TGI with OVCAR-8 ovarian, in the assay on HCT-116 colon, in the assay with NCI-H226 lung, with HCT-15 colon and in the assay on SF-295 CNS was over 100 µM in each case.
As to `Nc1cc2ncnn2c(SCC(=O)N/N=C/C(Br)=C\c2ccccc2)n1`, the TGI with HCC-2998 colon was determined as 40.6 µM; with HOP-62 NSCLC it was 87.2 µM; in the assay on RXF 393 renal it was 42.2 µM; in the assay with MCF7 breast, 38.8 µM; with A549 NSCLC it was 60.1 µM; in the assay with U251 CNS it was 20.7 µM. The TGI in the assay on EKVX NSCLC is over 100 µM; with LOX IMVI melanoma, 45.6 µM; in the assay with MDA-MB-231 breast it was 40 µM; in the assay with OVCAR-5 ovarian, 55.2 µM; in the assay with COLO 205 colon, 41.1 µM; with NCI-H23 lung, 33.1 µM. Further, the TGI with SF-539 CNS was 39.2 µM; in the assay with OVCAR-8 ovarian, 52.3 µM; in the assay on HCT-116 colon it was over 100 µM; with NCI-H226 lung it was 68.6 µM; with HCT-15 colon it was 37.1 µM; with SF-295 CNS, 67.7 µM.
As for `Nc1ncc(C=O)c(NCC2(CO)CCC2)n1`, the TGI in the assay on HCC-2998 colon, in the assay on HOP-62 NSCLC, in the assay on RXF 393 renal, with MCF7 breast, in the assay with A549 NSCLC and in the assay on U251 CNS was over 100 µM in each case. Besides, the TGI with LOX IMVI melanoma, with MDA-MB-231 breast, with OVCAR-5 ovarian, in the assay with COLO 205 colon, in the assay on NCI-H23 lung and in the assay with SF-539 CNS was over 100 µM in each case. The TGI in the assay with HOP-92 NSCLC was 87.8 µM; in the assay on OVCAR-8 ovarian, over 100 µM; in the assay on HCT-116 colon, over 100 µM; in the assay with NCI-H226 lung it was over 100 µM; in the assay on HCT-15 colon, over 100 µM; in the assay on SF-295 CNS, over 100 µM.
Consider `CN(C)C(=S)C(Cl)(c1ccccc1)c1ccccc1`, for which the TGI is over 100 µM in the assay on HCC-2998 colon; over 100 µM in the assay with HOP-62 NSCLC; over 100 µM with MCF7 breast; over 100 µM in the assay with A549 NSCLC; over 100 µM in the assay with U251 CNS; 75 µM in the assay on EKVX NSCLC. The TGI in the assay with LOX IMVI melanoma, with MDA-MB-231 breast, with OVCAR-5 ovarian, in the assay with COLO 205 colon, in the assay on NCI-H23 lung and in the assay on SF-539 CNS was over 100 µM each time. The TGI with HOP-92 NSCLC, in the assay with OVCAR-8 ovarian, in the assay with HCT-116 colon, in the assay with NCI-H226 lung, in the assay on HCT-15 colon and with SF-295 CNS was over 100 µM in each case.
